Like-named read-outs stand apart in the source and are kept apart here.
Legend:
FAP = target: T1, FAP (Mus musculus, UniProt P97321); assay: Inhibition of FAP activity on HEK-mFAP cells; format: cell-based; details: 5061DOX assay 3
T1 construct: host or cells: HEK (human embryonic kidney) cells, stably transfected
T1 sequence (P97321 1-761): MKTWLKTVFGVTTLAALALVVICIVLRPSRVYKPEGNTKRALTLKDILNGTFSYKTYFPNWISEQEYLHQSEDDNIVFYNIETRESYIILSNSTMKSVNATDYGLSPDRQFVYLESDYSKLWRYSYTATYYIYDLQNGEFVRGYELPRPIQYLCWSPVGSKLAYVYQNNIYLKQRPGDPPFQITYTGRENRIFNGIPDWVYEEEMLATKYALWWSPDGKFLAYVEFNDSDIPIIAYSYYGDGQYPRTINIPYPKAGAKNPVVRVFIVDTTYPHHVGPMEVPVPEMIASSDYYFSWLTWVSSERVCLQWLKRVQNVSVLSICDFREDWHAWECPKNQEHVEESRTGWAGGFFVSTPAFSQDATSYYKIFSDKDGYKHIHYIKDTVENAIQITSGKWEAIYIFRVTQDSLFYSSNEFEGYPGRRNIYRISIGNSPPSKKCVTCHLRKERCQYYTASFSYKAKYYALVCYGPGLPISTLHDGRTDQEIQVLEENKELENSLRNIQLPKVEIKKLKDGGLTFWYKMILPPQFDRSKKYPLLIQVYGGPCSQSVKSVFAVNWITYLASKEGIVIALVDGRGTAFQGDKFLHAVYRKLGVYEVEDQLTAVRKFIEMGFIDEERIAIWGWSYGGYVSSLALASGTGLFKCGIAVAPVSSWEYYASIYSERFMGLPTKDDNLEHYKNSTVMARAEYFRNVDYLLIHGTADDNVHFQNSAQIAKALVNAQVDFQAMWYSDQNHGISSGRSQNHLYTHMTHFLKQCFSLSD

HEK-mFAP cells = assay: CellTiter-Blue cell viability assay with HEK-mFAP cells; format: cell-based, human
SK-OV-3 = assay: CellTiter-Blue cell viability assay: SK-OV-3; format: cell-based; details: Homo sapiens, 5061DOX assay 2, 72 hour incubation
OVCAR-3 = assay: CellTiter-Blue cell viability assay: OVCAR-3; format: cell-based; details: Homo sapiens, 5061DOX assay 2, 72 hour incubation
HEK-Mock cells = assay: CellTiter-Blue cell viability assay with HEK-Mock cells; format: cell-based; details: Homo sapiens, 72 h
MCF-7 = assay: CellTiter-Blue cell viability assay: MCF-7; format: cell-based; details: Homo sapiens
HEK-Mock = assay: Cytotoxicity against tumor lines: HEK-Mock; format: cell-based; details: Homo sapiens, compound alone
Experimental: (§1) Cells from various tumor-derived cell lines were incubated with doxorubicin or 3099DOX, the latter in the presence or absence of FAP, and the EC50 for each was determined.

HT-29 = assay: Cytotoxicity against tumor lines: HT-29; format: cell-based; details: Homo sapiens, compound alone
Experimental: as §1

HEK-mFAP = assay: Cytotoxicity against tumor lines: HEK-mFAP; format: cell-based; details: Homo sapiens, compound alone
Experimental: as §1

BxPC-3 = assay: Cytotoxicity against tumor lines: BxPC-3; format: cell-based; details: Homo sapiens, compound alone
Experimental: as §1

HPAF-II = assay: Cytotoxicity against tumor lines: HPAF-II; format: cell-based; details: Homo sapiens, compound alone
Experimental: as §1

[1] = 5061DOX assay 2, 72 hour incubation, read-out: EC50 (prodrug alone)
[2] = read-out: EC50 (prodrug + 25 nM FAP)
[3] = read-out: EC50 (prodrug + 100 uM 5057)
[4] = read-out: EC50 (doxorubicin alone)

Question: With `COc1cccc2c1C(=O)c1c(O)c3c(c(O)c1C2=O)C[C@@](O)(C(=O)CO)C[C@@H]3OC1CC(NC(=O)[C@@H]2CCCN2C(=O)[C@@H](C)NC(=O)c2ccnc3cccc(Br)c23)C(O)C(C)O1` (stereo partly drawn) [Compound 5061DOX] as the compound, how does the IC50 (FAP) read?
Answer: > 10 µM

Question: And the EC50 (HEK-mFAP cells; 5061DOX assay 2, 72 hour incubation, read-out: EC50 (prodrug + 100 uM 5057))?
Answer: > 100 µM

Question: What about the EC50 (HEK-mFAP cells; [1]) of the same compound?
Answer: > 100 µM

Question: What about the EC50 (HEK-mFAP cells; Homo sapiens, 5061DOX assay 1, 72 hour incubation, read-out: EC50 (prodrug + 100 uM 5057)) of the same compound?
Answer: > 100 µM

Question: And the EC50 (HEK-mFAP cells; Homo sapiens, 5061DOX assay 1, 72 hour incubation, read-out: EC50 (prodrug alone))?
Answer: > 100 µM

Question: And the EC50 (SK-OV-3; [2])?
Answer: 0.9 µM

Question: What about the EC50 (SK-OV-3; [3]) of the same compound?
Answer: > 100 µM

Question: What about the EC50 (SK-OV-3; read-out: EC50 (prodrug alone)) of the same compound?
Answer: > 100 µM

Question: What about the EC50 (OVCAR-3; [2]) of the same compound?
Answer: 1.5 µM

Question: What about the EC50 (OVCAR-3; [3]) of the same compound?
Answer: > 100 µM

Question: And the EC50 (OVCAR-3; read-out: EC50 (prodrug alone))?
Answer: > 100 µM

Question: What about the EC50 (HEK-Mock cells; 5061DOX assay 1, 72 hour incubation, read-out: EC50 (prodrug + 25 nM FAP)) of the same compound?
Answer: 0.28 µM

Question: What about the EC50 (HEK-Mock cells; 5061DOX assay 1, 72 hour incubation, read-out: EC50 (prodrug + 50 nM PREP)) of the same compound?
Answer: > 100 µM

Question: What about the EC50 (HEK-Mock cells; 5061DOX assay 1, 72 hour incubation, read-out: EC50 (prodrug + 100 uM 5057)) of the same compound?
Answer: > 100 µM

Question: And the EC50 (HEK-Mock cells; 5061DOX assay 1, 72 hour incubation, read-out: EC50 (prodrug alone))?
Answer: > 100 µM

Question: What about the EC50 (HEK-Mock cells; 5061DOX assay 2, 72 hour incubation, read-out: EC50 (prodrug + 25 nM FAP)) of the same compound?
Answer: 0.25 µM

Question: What about the EC50 (HEK-Mock cells; [1]) of the same compound?
Answer: > 100 µM

Question: What about the EC50 (MCF-7; MCF7, 5061DOX assay 2, 72 hour incubation, read-out: EC50 (prodrug + 25 nM FAP)) of the same compound?
Answer: > 100 µM

Question: What about the EC50 (MCF-7; MCF7, 5061DOX assay 2, 72 hour incubation, read-out: EC50 (prodrug + 100 uM 5057)) of the same compound?
Answer: > 100 µM

Question: And the EC50 (MCF-7; MCF7, 5061DOX assay 2, 72 hour incubation, read-out: EC50 (prodrug alone))?
Answer: > 100 µM

Question: Which results are given for `COc1cccc2c1C(=O)c1c(O)c3c(c(O)c1C2=O)C[C@@](O)(C(=O)CO)C[C@@H]3O[C@H]1C[C@H](N)[C@H](O)[C@H](C)O1` [doxorubicin, reference compound]?
Answer: EC50 (HEK-mFAP cells; Homo sapiens, 72 h, 5057DOX assay 2, 72 hour incubation, read-out: EC50 (doxorubicin alone)): 0.059 µM; EC50 (HEK-mFAP cells; Homo sapiens, 72 h, 5057DOX assay 3, 72 hour incubation, read-out: EC50 (doxorubicin alone)): 0.24 µM; EC50 (HEK-mFAP cells; Homo sapiens, 72 h, 5057DOX assay 4, 72 hour incubation, read-out: EC50 (doxorubicin alone)): 0.42 µM; EC50 (HEK-mFAP cells; Homo sapiens, 72 h, 5057DOX assay 8, 72 hour incubation, read-out: EC50 (doxorubicin)): 0.4 µM; EC50 (HEK-mFAP cells; Homo sapiens, 72 h, 5061DOX assay 1, 72 hour incubation, read-out: EC50 (doxorubicin alone)): 0.42 µM; EC50 (HEK-mFAP cells; Homo sapiens, 72 h, 5107DOX assay, 72 hour incubation, read-out: EC50 (doxorubicin)): 0.39 µM; EC50 (HEK-Mock): 0.05 µM; EC50 (HT-29): 0.4 µM; EC50 (SK-OV-3; [4]): 0.44 µM; EC50 (HEK-mFAP): 0.2 µM; EC50 (OVCAR-3; [4]): 1.7 µM; EC50 (HEK-Mock cells; 5057DOX assay 1, 72 hour incubation, read-out: EC50 (doxorubicin alone)): 0.036 µM; EC50 (HEK-Mock cells; 5057DOX assay 2, 72 hour incubation, read-out: EC50 (doxorubicin alone)): 0.034 µM; EC50 (HEK-Mock cells; 5057DOX assay 3, 72 hour incubation, read-out: EC50 (doxorubicin alone)): 0.095 µM; EC50 (HEK-Mock cells; 5057DOX assay 4, 72 hour incubation, read-out: EC50 (doxorubicin alone)): 0.092 µM; EC50 (HEK-Mock cells; 5061DOX assay 1, 72 hour incubation, read-out: EC50 (doxorubicin alone)): 0.092 µM; EC50 (MCF-7; MCF7, 5057DOX assay 5, 72 hour incubation, read-out: EC50 (doxorubicin alone)): 54 µM; EC50 (BxPC-3): 3.1 µM; EC50 (HPAF-II): 2 µM
